Assay results as given in ChEMBL document CHEMBL1201861, “Genomics of Drug Sensitity in Cancer screening data, Wellcome Trust Sanger Institute”.

Legend:
Experiment in all cases: cells
Format in all cases: functional, cell-based, Homo sapiens
[1] = system: DOK;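 note: cell viability assay read-out, values reflect inhibition of cell growth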
Description: SANGER: Inhibition of human DOK cell growth in a cell viability assay.

[2] = system: EFM-19;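 note: growth inhibition of human EFM-19 cells, measured in a cell viability assay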
Description: SANGER: Inhibition of human EFM-19 cell growth in a cell viability assay.

[3] = system: G-361
[4] = system: HCC1806;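 note: growth inhibition of the cancer cell line, determined with a cell viability assay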
Description: SANGER: Inhibition of human HCC1806 cell growth in a cell viability assay.

[5] = system: HCC38;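 note: cell viability assay on the human HCC38 cell line, with IC50 marking the concentration that inhibits cell growth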
Description: SANGER: Inhibition of human HCC38 cell growth in a cell viability assay.

[6] = system: HEC-1;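 note: growth inhibition of the cell line, read out with a cell viability assay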
Description: SANGER: Inhibition of human HEC-1 cell growth in a cell viability assay.

[7] = system: HO-1-N-1;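 note: growth inhibition of human HO-1-N-1 cells, read out with a cell viability assay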
Description: SANGER: Inhibition of human HO-1-N-1 cell growth in a cell viability assay.

[8] = system: HSC-2;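 note: growth inhibition of human HSC-2 cells, read out by a cell viability assay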
Description: SANGER: Inhibition of human HSC-2 cell growth in a cell viability assay.

[9] = system: HSC-3
Description: SANGER: Inhibition of human HSC-3 cell growth in a cell viability assay.

[10] = system: HT-1080
Description: SANGER: Inhibition of human HT-1080 cell growth in a cell viability assay.

[11] = system: HT-29;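 note: growth inhibition of human HT-29 cells, read out by a cell viability assay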
Description: SANGER: Inhibition of human HT-29 cell growth in a cell viability assay.

[12] = system: HT-3;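 note: growth inhibition measured with a cell viability readout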
Description: SANGER: Inhibition of human HT-3 cell growth in a cell viability assay.

[13] = system: J82;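 note: growth inhibition of J82 cells, read out with a cell viability assay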
Description: SANGER: Inhibition of human J82 cell growth in a cell viability assay.

[14] = system: KYSE-270;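 note: cell growth inhibition measured with a viability assay in the human KYSE-270 line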
Description: SANGER: Inhibition of human KYSE-270 cell growth in a cell viability assay.

[15] = system: LCLC-103H cell line
Description: SANGER: Inhibition of human LCLC-103H cell growth in a cell viability assay.

[16] = system: LK-2;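 note: growth inhibition of LK-2 cells, read out with a viability assay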
Description: SANGER: Inhibition of human LK-2 cell growth in a cell viability assay.

[17] = system: LoVo;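 note: growth inhibition of human LoVo cells, read out with a cell viability assay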
Description: SANGER: Inhibition of human LoVo cell growth in a cell viability assay.

[18] = system: MRK-nu-1;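 note: cell viability assay measuring growth suppression of human MRK-nu-1 cells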
Description: SANGER: Inhibition of human MRK-nu-1 cell growth in a cell viability assay.

[19] = system: NCI-H1623;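 note: cell viability assay used as the read-out for growth inhibition of NCI-H1623 cells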
Description: SANGER: Inhibition of human NCI-H1623 cell growth in a cell viability assay.

[20] = system: NCI-H1963;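 note: cell growth inhibition of the human line, determined with a cell viability assay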
Description: SANGER: Inhibition of human NCI-H1963 cell growth in a cell viability assay.

[21] = system: NCI-H2052;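 note: growth inhibition of NCI-H2052 cells, read out with a cell viability assay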
Description: SANGER: Inhibition of human NCI-H2052 cell growth in a cell viability assay.

[22] = system: NCI-H2171;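 note: growth inhibition of human NCI-H2171 cells, read out by a cell viability assay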
Description: SANGER: Inhibition of human NCI-H2171 cell growth in a cell viability assay.

[23] = system: NCI-H661;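 note: cell viability assay read-out, IC50 being the concentration that inhibits growth of the cells by half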
Description: SANGER: Inhibition of human NCI-H661 cell growth in a cell viability assay.

[24] = system: NCI-H716;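 note: growth inhibition of human NCI-H716 cells, measured by a cell viability assay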
Description: SANGER: Inhibition of human NCI-H716 cell growth in a cell viability assay.

[25] = system: NY
Description: SANGER: Inhibition of human NY cell growth in a cell viability assay.

[26] = system: PFSK-1;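 note: cell viability assay measuring how strongly compounds suppress growth of human PFSK-1 cells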
Description: SANGER: Inhibition of human PFSK-1 cell growth in a cell viability assay.

[27] = system: RL
Description: SANGER: Inhibition of human RL cell growth in a cell viability assay.

[28] = system: RMG-I;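 note: growth inhibition of human RMG-I cells, read out with a cell viability assay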
Description: SANGER: Inhibition of human RMG-I cell growth in a cell viability assay.

[29] = system: RPMI-7951
Description: SANGER: Inhibition of human RPMI-7951 cell growth in a cell viability assay.

[30] = system: SCC-25;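 note: growth inhibition of SCC-25 cells, measured with a cell viability assay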
Description: SANGER: Inhibition of human SCC-25 cell growth in a cell viability assay.

[31] = system: SCLC-21H;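 note: growth inhibition of cultured human SCLC-21H cells, read out with a cell viability assay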
Description: SANGER: Inhibition of human SCLC-21H cell growth in a cell viability assay.

[32] = system: SIMA;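 note: growth inhibition of SIMA cells, measured with a cell viability readout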
Description: SANGER: Inhibition of human SIMA cell growth in a cell viability assay.

[33] = system: SK-LU-1;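 note: cell viability assay measuring growth inhibition of human SK-LU-1 cells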
Description: SANGER: Inhibition of human SK-LU-1 cell growth in a cell viability assay.

[34] = system: SK-MES-1;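 note: growth inhibition of human SK-MES-1 cells, read out with a cell viability assay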
Description: SANGER: Inhibition of human SK-MES-1 cell growth in a cell viability assay.

[35] = system: SW13;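 note: IC50 is inhibition of SW13 cell growth, read out with a cell viability assay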
Description: SANGER: Inhibition of human SW13 cell growth in a cell viability assay.

[36] = system: SW1463;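 note: growth inhibition of SW1463 cells, determined with a cell viability assay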
Description: SANGER: Inhibition of human SW1463 cell growth in a cell viability assay.

[37] = system: 786-0
Description: SANGER: Inhibition of human 786-0 cell growth in a cell viability assay.

[38] = system: A 172;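 note: growth inhibition of A172 cells, measured with a cell viability readout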
Description: SANGER: Inhibition of human A172 cell growth in a cell viability assay.

[39] = system: A2780;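 note: growth inhibition of A2780 cells, read out with a cell viability assay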
Description: SANGER: Inhibition of human A2780 cell growth in a cell viability assay.

[40] = system: AU565;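 note: cell viability assay measuring growth inhibition of human AU565 cells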
Description: SANGER: Inhibition of human AU565 cell growth in a cell viability assay.

[41] = system: BHT-101
Description: SANGER: Inhibition of human BHT-101 cell growth in a cell viability assay.

[42] = system: BL-41;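 note: growth inhibition of human BL-41 cells, read out with a cell viability assay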
Description: SANGER: Inhibition of human BL-41 cell growth in a cell viability assay.

[43] = system: BT-20;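 note: cell viability assay measuring suppression of growth in human BT-20 cells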
Description: SANGER: Inhibition of human BT-20 cell growth in a cell viability assay.

[44] = system: C-33-A;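 note: cell viability assay measuring growth inhibition of C-33-A cells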
Description: SANGER: Inhibition of human C-33-A cell growth in a cell viability assay.

[45] = system: CA46;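 note: growth inhibition of human CA46 cells, read out by a cell viability assay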
Description: SANGER: Inhibition of human CA46 cell growth in a cell viability assay.

[46] = system: CAL-62;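 note: growth inhibition of CAL-62 cells, read out with a cell viability assay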
Description: SANGER: Inhibition of human CAL-62 cell growth in a cell viability assay.

[47] = system: WM-115
Description: SANGER: Inhibition of human WM-115 cell growth in a cell viability assay.

[48] = system: YKG-1;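 note: cell growth inhibition, read out with a viability assay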
Description: SANGER: Inhibition of human YKG-1 cell growth in a cell viability assay.

`O=C(O)c1ccc(-c2c[nH]c3ncc(-c4ccccc4)cc23)cc1C1CCCC1` [GSK-650394] showed an IC50 ([1]; Homo sapiens, DOK) greater than 16 µM, an IC50 ([2]; Homo sapiens, EFM-19) greater than 16 µM and an IC50 ([3]; Homo sapiens, G-361) of 3.72 µM. For the same compound, the IC50 ([4]; Homo sapiens, HCC1806) was greater than 16 µM, the IC50 ([5]; Homo sapiens, HCC38) was greater than 16 µM and the IC50 ([6]; Homo sapiens, HEC-1) was greater than 16 µM. The IC50 ([7]; Homo sapiens, HO-1-N-1) was greater than 16 µM, the IC50 ([8]; Homo sapiens, HSC-2) was greater than 16 µM and the IC50 ([9]; Homo sapiens, HSC-3) was greater than 16 µM. For the same compound, the IC50 ([10]; Homo sapiens, HT-1080) was 5.49 µM, the IC50 ([11]; Homo sapiens, HT-29) was 7.27 µM and the IC50 ([12]; Homo sapiens, HT-3) was greater than 16 µM. It also gave an IC50 ([13]; Homo sapiens, J82) of 8.2 µM, an IC50 ([14]; Homo sapiens, KYSE-270) of 2.41 µM and an IC50 ([15]; Homo sapiens, LCLC-103H) of 3.91 µM. It also gave an IC50 ([16]; Homo sapiens, LK-2) greater than 16 µM, an IC50 ([17]; Homo sapiens, LoVo) of 9.91 µM and an IC50 ([18]; Homo sapiens, MRK-nu-1) of 7.05 µM. It also gave an IC50 ([19]; Homo sapiens, NCI-H1623) greater than 16 µM, an IC50 ([20]; Homo sapiens, NCI-H1963) greater than 16 µM and an IC50 ([21]; Homo sapiens, NCI-H2052) greater than 16 µM. For the same compound, the IC50 ([22]; Homo sapiens, NCI-H2171) was greater than 16 µM, the IC50 ([23]; Homo sapiens, NCI-H661) was greater than 16 µM and the IC50 ([24]; Homo sapiens, NCI-H716) was greater than 16 µM. It also gave an IC50 ([25]; Homo sapiens, NY) greater than 16 µM, an IC50 ([26]; Homo sapiens, PFSK-1) greater than 16 µM and an IC50 ([27]; Homo sapiens, RL) greater than 16 µM. For the same compound, the IC50 ([28]; Homo sapiens, RMG-I) was greater than 16 µM, the IC50 ([29]; Homo sapiens, RPMI-7951) was greater than 16 µM and the IC50 ([30]; Homo sapiens, SCC-25) was greater than 16 µM. The IC50 ([31]; Homo sapiens, SCLC-21H) was greater than 16 µM, the IC50 ([32]; Homo sapiens, SIMA) was greater than 16 µM and the IC50 ([33]; Homo sapiens, SK-LU-1) was 3.97 µM. The IC50 ([34]; Homo sapiens, SK-MES-1) was 16 µM, the IC50 ([35]; Homo sapiens, SW13) was greater than 16 µM and the IC50 ([36]; Homo sapiens, SW1463) was greater than 16 µM. The IC50 ([37]; Homo sapiens) was 2.95 µM, the IC50 ([38]; Homo sapiens, A 172) was greater than 16 µM and the IC50 ([39]; Homo sapiens, A2780) was greater than 16 µM. It also gave an IC50 ([40]; Homo sapiens, AU565) greater than 16 µM, an IC50 ([41]; Homo sapiens, BHT-101) greater than 16 µM and an IC50 ([42]; Homo sapiens, BL-41) greater than 16 µM. The IC50 ([43]; Homo sapiens, BT-20) was greater than 16 µM, the IC50 ([44]; Homo sapiens, C-33-A) was 8.53 µM and the IC50 ([45]; Homo sapiens, CA46) was greater than 16 µM. The IC50 ([46]; Homo sapiens, CAL-62) was 4.77 µM, the IC50 ([47]; Homo sapiens, WM-115) was greater than 16 µM and the IC50 ([48]; Homo sapiens, YKG-1) was 7.39 µM.
In the case of BLEOMYCIN, the IC50 ([1]; dok) is reported as 322 µM, the IC50 ([2]; efm-19) is reported as 0.0148 µM and the IC50 ([3]; g-361) is reported as 0.0883 µM. The IC50 ([4]; hcc1806) was 0.00854 µM, the IC50 ([5]; hcc38) was 0.0312 µM and the IC50 ([6]; hec-1) was 27.4 µM. It also gave an IC50 ([7]; ho-1-n-1) of 4.42 µM, an IC50 ([8]; hsc-2) of 2.47 µM and an IC50 ([9]; hsc-3) of 0.688 µM. The IC50 ([10]; ht-1080) was 0.234 µM, the IC50 ([11]; ht-29) was 0.535 µM and the IC50 ([12]; ht-3) was 5.78 µM. For the same compound, the IC50 ([13]; j82) was 0.774 µM, the IC50 ([14]; kyse-270) was 0.717 µM and the IC50 ([15]; lclc-103h) was 0.144 µM. It also gave an IC50 ([16]; lk-2) of 1.69 µM, an IC50 ([17]; lovo) of 0.0712 µM and an IC50 ([18]; mrk-nu-1) of 1.45 µM. The IC50 ([19]; nci-h1623) was 39 µM, the IC50 ([20]; nci-h1963) was 193 µM and the IC50 ([21]; nci-h2052) was 2.97 µM. For the same compound, the IC50 ([22]; nci-h2171) was 1420 µM, the IC50 ([23]; nci-h661) was 2.79 µM and the IC50 ([24]; nci-h716) was 1420 µM. For the same compound, the IC50 ([25]; ny) was 5.91 µM, the IC50 ([26]; pfsk-1) was 33.4 µM and the IC50 ([27]; rl) was 2270 µM. For the same compound, the IC50 ([28]; rmg-i) was 0.000132 µM, the IC50 ([29]; rpmi-7951) was 1.24 µM and the IC50 ([30]; scc-25) was 0.415 µM. The IC50 ([31]; sclc-21h) was 577 µM, the IC50 ([32]; sima) was 6.93 µM and the IC50 ([33]; sk-lu-1) was 0.999 µM. For the same compound, the IC50 ([34]; sk-mes-1) was 3.07 µM, the IC50 ([35]; sw13) was 0.0816 µM and the IC50 ([36]; sw1463) was 23.4 µM. It also gave an IC50 [37] of 0.0808 µM, an IC50 ([38]; a 172) of 39.7 µM and an IC50 ([39]; a2780) of 0.22 µM. It also gave an IC50 ([40]; au565) of 2.05 µM, an IC50 ([41]; bht-101) of 7.34 µM and an IC50 ([42]; bl-41) of 14.2 µM. It also gave an IC50 ([43]; bt-20) of 2.77 µM, an IC50 ([44]; c-33-a) of 0.432 µM and an IC50 ([45]; ca46) of 84.8 µM. For the same compound, the IC50 ([46]; cal-62) was 3.34 µM, the IC50 ([47]; wm-115) was 7.09 µM and the IC50 ([48]; ykg-1) was 3.26 µM.
